From patent US10981875B2, “Quinolone-based compounds with anticancer activity” (Regents of the University of Minnesota, priority 2016, dated 2021)
Where two headings read alike, the source gives them in different places.

Columns and labels:
[1] = tested on: colon (HT-29) and leukemia (K-562) cell lines; test: MTT anti-proliferative assay; type: cell-based; settings: HT-29 and K-562
Experimental: An MTT assay was performed with 277 and with the following compounds:
[drawing 68] against colon (HT-29) and leukemia (K-562) cell lines to determine their in vitro anti-proliferative activities.

human topoisomerase I = molecular target: T1, human topoisomerase I (Homo sapiens, UniProt P11387); test: Topoisomerase I relaxation assay (human); type: biochemical
T1 sequence (P11387 1-765): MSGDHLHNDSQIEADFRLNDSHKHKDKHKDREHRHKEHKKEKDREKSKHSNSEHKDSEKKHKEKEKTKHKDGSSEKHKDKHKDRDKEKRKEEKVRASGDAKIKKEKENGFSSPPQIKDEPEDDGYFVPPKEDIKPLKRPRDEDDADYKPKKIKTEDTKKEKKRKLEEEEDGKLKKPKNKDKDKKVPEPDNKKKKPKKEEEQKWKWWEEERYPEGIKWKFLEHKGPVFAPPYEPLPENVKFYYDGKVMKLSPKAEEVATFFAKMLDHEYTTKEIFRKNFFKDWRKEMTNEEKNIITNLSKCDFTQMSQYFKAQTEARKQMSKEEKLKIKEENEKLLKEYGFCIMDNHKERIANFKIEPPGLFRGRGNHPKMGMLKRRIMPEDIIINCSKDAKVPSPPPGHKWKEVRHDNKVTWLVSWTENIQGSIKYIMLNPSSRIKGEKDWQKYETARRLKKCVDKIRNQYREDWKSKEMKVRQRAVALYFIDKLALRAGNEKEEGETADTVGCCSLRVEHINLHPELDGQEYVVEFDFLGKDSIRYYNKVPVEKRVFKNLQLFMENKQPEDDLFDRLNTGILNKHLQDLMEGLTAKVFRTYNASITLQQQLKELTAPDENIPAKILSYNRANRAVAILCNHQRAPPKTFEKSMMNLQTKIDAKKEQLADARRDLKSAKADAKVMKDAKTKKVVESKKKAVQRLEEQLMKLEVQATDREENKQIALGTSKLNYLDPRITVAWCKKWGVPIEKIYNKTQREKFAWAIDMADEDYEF

60 cancer cell lines = test: NCI 60 DTP Human Tumor Cell Line Screen; type: cell-based; settings: for GI50: Homo sapiens, against the 60 cancer cell lines; for comparison of GI50 and LD50 values with etoposide (NCI's COMPARE program): majority of the 60 cancer cell lines; for mean growth: single dose (10 μM) screening
From the text: Both 217 and 227 were submitted to the NCI for the 60 DTP Human Tumor Cell Line Screen.

[2] = tested on: mammalian topoisomerase I; test: Topoisomerase I poisoning (DNA cleavage); type: biochemical
From the text: (§1) Topoisomerase poisoning results in the accumulation of covalent topoisomerase-DNA complexes, which can be detected as the generation of nicked and/or linear DNA in DNA cleavage assays. Poisoning of human topoisomerase II generate double-strand breaks that lead to the development of therapy-related acute myeloid leukemia.

calf topoisomerase I = molecular target: T2, calf topoisomerase I (Bos taurus, UniProt F1MN93); test: Topoisomerase I relaxation assay (calf); type: biochemical; settings: Table 1, calf enzyme, read-out: Topo I (c) IC50 (converted)
T2 sequence (F1MN93 1-767): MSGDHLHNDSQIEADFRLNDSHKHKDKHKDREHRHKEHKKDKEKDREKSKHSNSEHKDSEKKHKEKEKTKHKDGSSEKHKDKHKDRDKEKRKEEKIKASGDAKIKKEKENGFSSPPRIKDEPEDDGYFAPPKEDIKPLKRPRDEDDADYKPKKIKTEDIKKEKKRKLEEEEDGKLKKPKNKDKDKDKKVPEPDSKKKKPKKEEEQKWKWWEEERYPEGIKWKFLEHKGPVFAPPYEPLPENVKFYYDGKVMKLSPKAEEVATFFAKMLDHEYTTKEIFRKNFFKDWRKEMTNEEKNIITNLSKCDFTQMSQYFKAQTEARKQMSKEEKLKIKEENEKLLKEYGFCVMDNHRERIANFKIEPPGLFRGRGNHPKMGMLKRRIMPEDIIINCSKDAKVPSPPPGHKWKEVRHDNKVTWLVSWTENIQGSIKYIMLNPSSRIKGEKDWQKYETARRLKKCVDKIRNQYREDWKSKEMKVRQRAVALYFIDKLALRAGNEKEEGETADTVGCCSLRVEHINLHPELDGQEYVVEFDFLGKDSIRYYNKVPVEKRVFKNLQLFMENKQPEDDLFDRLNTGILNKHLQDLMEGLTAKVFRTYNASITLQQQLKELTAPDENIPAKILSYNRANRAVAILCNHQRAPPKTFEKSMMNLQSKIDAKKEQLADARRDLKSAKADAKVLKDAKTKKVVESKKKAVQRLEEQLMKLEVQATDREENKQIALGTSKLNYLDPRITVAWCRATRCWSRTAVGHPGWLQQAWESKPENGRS

Aqueous solubility = type: physicochemical
human topoisomerase II [3] = molecular target: T3, human topoisomerase II (Homo sapiens, UniProt P11388); test: DNA cleavage assay (topoisomerase II poisoning); type: biochemical; settings: various concentrations; FIG. 1
T3 sequence (P11388 whole entry): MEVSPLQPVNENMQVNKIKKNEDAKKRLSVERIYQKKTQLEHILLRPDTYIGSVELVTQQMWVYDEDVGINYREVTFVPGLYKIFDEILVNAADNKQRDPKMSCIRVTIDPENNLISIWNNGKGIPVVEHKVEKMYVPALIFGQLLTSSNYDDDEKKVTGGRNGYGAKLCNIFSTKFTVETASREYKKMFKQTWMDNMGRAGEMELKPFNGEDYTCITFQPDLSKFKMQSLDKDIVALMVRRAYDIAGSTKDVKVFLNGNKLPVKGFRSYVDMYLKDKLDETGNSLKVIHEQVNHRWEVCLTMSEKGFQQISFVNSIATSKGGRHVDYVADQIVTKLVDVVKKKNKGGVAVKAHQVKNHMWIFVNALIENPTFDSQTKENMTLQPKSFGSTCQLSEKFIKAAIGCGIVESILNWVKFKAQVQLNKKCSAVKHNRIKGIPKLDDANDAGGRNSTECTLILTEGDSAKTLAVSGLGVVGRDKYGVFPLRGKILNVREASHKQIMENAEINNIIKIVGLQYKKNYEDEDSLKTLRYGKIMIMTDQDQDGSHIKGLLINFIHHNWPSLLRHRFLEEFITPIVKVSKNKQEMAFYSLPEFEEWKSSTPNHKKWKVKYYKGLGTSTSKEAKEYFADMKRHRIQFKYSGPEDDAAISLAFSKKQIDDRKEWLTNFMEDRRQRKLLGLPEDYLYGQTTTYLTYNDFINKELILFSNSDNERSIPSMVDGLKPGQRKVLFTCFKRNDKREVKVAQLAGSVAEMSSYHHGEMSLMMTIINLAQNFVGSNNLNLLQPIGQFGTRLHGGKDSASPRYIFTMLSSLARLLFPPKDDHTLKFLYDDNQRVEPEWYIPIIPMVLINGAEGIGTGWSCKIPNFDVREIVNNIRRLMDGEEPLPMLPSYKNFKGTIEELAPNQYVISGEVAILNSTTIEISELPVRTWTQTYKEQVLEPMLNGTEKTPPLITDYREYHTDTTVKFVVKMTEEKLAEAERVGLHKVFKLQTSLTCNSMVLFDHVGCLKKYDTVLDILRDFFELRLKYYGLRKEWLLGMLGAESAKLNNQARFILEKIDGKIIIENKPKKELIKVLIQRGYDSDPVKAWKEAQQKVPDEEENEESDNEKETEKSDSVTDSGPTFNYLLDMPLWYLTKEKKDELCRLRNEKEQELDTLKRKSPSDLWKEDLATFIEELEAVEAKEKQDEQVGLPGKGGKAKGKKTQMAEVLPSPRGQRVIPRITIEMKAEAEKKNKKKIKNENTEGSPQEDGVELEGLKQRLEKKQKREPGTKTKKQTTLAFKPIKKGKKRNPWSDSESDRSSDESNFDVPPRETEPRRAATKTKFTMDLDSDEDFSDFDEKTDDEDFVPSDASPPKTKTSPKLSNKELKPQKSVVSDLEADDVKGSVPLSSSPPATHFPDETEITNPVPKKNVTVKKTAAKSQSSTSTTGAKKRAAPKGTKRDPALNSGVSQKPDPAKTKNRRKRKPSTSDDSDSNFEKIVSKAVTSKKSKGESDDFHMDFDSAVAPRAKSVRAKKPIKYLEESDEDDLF
From the text: as §1

[4] = In vivo toxicity study (maximum tolerated dose); settings: daily intraperitoneal, up to 30 mg/kg for 3 weeks
Experimental: (§2) In vivo toxicity studies were performed to establish the maximum tolerated dose of 217 and 227 in mice. […] A proof of concept efficacy study was also conducted in mice with 217 and 227. Based on the in vitro susceptibility to 217 and 227, and the availability of the established xenograft models, a colon cancer (HT-29) xenograft model was used.

human topoisomerase II [5] = molecular target: T3, human topoisomerase II; test: Topoisomerase II decatenation assay; type: biochemical
E. coli DNA gyrase = E. coli DNA gyrase (Escherichia coli, UniProt P0AES4+P0AES6); test: DNA gyrase supercoiling assay; type: biochemical; settings: Table 1
Sequence of E. coli DNA gyrase (P0AES4 whole entry, one chain of several): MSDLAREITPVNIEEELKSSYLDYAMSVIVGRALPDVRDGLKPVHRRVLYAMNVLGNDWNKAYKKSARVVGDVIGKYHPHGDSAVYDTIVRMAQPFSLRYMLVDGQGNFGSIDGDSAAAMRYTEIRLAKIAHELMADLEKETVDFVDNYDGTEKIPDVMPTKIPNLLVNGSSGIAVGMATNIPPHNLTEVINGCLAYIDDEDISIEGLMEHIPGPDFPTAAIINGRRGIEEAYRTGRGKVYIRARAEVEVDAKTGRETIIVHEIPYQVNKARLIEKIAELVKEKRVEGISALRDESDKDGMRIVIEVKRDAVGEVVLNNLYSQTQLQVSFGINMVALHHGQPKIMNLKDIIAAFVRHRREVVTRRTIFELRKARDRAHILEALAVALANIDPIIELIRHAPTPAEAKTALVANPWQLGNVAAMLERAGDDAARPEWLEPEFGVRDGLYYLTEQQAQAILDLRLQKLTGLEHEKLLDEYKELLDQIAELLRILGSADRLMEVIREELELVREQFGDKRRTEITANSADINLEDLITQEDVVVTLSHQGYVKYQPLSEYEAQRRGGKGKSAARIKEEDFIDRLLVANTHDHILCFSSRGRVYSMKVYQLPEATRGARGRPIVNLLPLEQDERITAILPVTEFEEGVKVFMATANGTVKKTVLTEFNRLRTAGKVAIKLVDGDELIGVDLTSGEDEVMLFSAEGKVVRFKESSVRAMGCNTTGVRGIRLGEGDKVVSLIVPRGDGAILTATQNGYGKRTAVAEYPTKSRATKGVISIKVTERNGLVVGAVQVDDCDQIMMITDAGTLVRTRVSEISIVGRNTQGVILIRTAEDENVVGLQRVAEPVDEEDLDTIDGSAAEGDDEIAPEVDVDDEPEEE

[6] = tested on: colon cancer (HT-29) xenograft; test: Colon cancer (HT-29) xenograft efficacy study; type: in vivo, mice; settings: 3-week treatment, FIG. 2
Experimental: as §2

[7] = Table 2, relaxation assay, read-out: Topo I IC50
[8] = Table 1, human enzyme, relaxation assay, read-out: Topo I (h) IC50
[9] = read-out: IC50 human topoisomerase I in the relaxation assay
[10] = Table 1, decatenation assay, read-out: Topo II IC50
[11] = Table 2, decatenation assay, read-out: Topo II IC50
[12] = read-out: IC50 human topoisomerase II in the decatenation assay

**Q.** With NC[C@@H]1CCN(c2cc3c(cc2F)c(=O)c(C(=O)O)cn3Cc2ccc(-c3ccccc3)cc2)C1 [Compound 065] as the compound, how does the “anti-proliferative activity, fold higher than that of 217” value [1] read?
**A.** 2-5 fold

**Q.** For COc1c(N2C[C@@H]3CCCN[C@@H]3C2)c(F)cc2c(=O)c(C(=O)O)cn(Cc3ccc(-c4ccccc4)cc3)c12 [Compound 205], which IC50 (human topoisomerase I; [7]) is on record?
**A.** 44.4 ± 0.8 µM

**Q.** Which IC50 (human topoisomerase I; [7]) does the source give for COc1c(N2CCNCC2)c(F)cc2c(=O)c(C(=O)O)cn(Cc3ccc(-c4ccccc4)cc3)c12 [Compound 207] here?
**A.** 54.2 ± 3.2 µM

**Q.** For COc1c(N2C[C@@H]3CCCN[C@@H]3C2)c(F)cc2c(=O)c(C(=O)O)cn(Cc3ccc4ccccc4c3)c12 [Compound 213], which IC50 (human topoisomerase I; [7]) is on record?
**A.** 127.9 ± 0.8 µM

**Q.** For NC[C@@H]1CCN(c2cc3c(cc2F)c(=O)n(N)c(=O)n3Cc2ccc3ccccc3c2)C1 [Compound 213a], which IC50 (human topoisomerase I; [7]) is on record?
**A.** 59 ± 2.9 µM

**Q.** For COc1c(N2CCNCC2)c(F)cc2c(=O)c(C(=O)O)cn(Cc3ccc4ccccc4c3)c12 [Compound 215], which IC50 (human topoisomerase I; [7]) is on record?
**A.** 132 ± 3.5 µM

**Q.** For NC[C@@H]1CCN(c2cc3c(cc2F)c(=O)n(N)c(=O)n3Cc2ccc(-c3ccccc3)cc2)C1 [Compound 215a], which IC50 (human topoisomerase I; [7]) is on record?
**A.** 25.9 ± 5.4 µM

**Q.** Which GI50 (60 cancer cell lines) does the source give for COc1c(N2CC[C@@H](CN)C2)c(F)cc2c(=O)c(C(=O)O)cn(Cc3ccc(-c4ccccc4)cc3)c12 [Compound 217, (S)-1-([1,1′-biphenyl]-4-ylmethyl)-7-(3-(aminomethyl)pyrrolidin-1-yl)-6-fluoro-8-methoxy-4-oxo-1,4-dihydroquinoline-3-carboxylic acid] here?
**A.** 1.9 µM

**Q.** What about the “comparison of GI50 and LD50 values with etoposide (NCI's COMPARE program)” value (60 cancer cell lines) of the same compound?
**A.** significantly more effective than etoposide

**Q.** What about the mean growth (60 cancer cell lines) of the same compound?
**A.** 40.3%

**Q.** And the “poisoning of mammalian topoisomerase I” value [2]?
**A.** did not poison mammalian topoisomerase I

**Q.** What about the IC50 (human topoisomerase I; [8]) of the same compound?
**A.** 26 ± 0.5 µM

**Q.** What about the IC50 (human topoisomerase I; [9]) of the same compound?
**A.** 26.5 µM

**Q.** And the IC50 (calf topoisomerase I)?
**A.** 32.2 µM

**Q.** What about the aqueous solubility (Aqueous solubility) of the same compound?
**A.** limited aqueous solubility

**Q.** And the “increase in the amounts of linear DNA” value (human topoisomerase II [3])?
**A.** did not detect any significant increase (two-fold or less)

**Q.** And the “effect on animal weight gain” value [4]?
**A.** did not have any significant effect on animal weight gain

**Q.** And the tolerability [4]?
**A.** well-tolerated

**Q.** What about the IC50 (human topoisomerase II [5]; [10]) of the same compound?
**A.** 128 ± 4.7 µM

**Q.** And the IC50 (human topoisomerase II [5]; [11])?
**A.** 128 ± 4.7 µM

**Q.** And the IC50 (human topoisomerase II [5]; [12])?
**A.** 128 µM

**Q.** What about the IC50 (E. coli DNA gyrase) of the same compound?
**A.** 1370 ± 10.1 µM

**Q.** What about the “inhibition of colon cancer proliferation in vivo” value [6] of the same compound?
**A.** inhibited the proliferation of colon cancer in vivo as well as fluorouracil (5-FU)

**Q.** With COc1c(N2CC[C@@H](CN)C2)c(F)cc2c(=O)c(C(=O)O)cn(Cc3ccc4ccccc4c3)c12 [Compound 227, (S)-7-(3-(aminomethyl)pyrrolidin-1-yl)-6-fluoro-8-methoxy-1-(naphthalen-2-ylmethyl)-4-oxo-1,4-dihydroquinoline-3-carboxylic acid] as the compound, how does the GI50 (60 cancer cell lines) read?
**A.** 3.1 µM

**Q.** What about the “comparison of GI50 and LD50 values with etoposide (NCI's COMPARE program)” value (60 cancer cell lines) of the same compound?
**A.** significantly more effective than etoposide

**Q.** What about the mean growth (60 cancer cell lines) of the same compound?
**A.** 44.1%

**Q.** And the “poisoning of mammalian topoisomerase I” value [2]?
**A.** did not poison mammalian topoisomerase I

**Q.** What about the IC50 (human topoisomerase I; [8]) of the same compound?
**A.** 43.7 ± 0.6 µM

**Q.** And the IC50 (human topoisomerase I; [9])?
**A.** 43.1 µM

**Q.** And the IC50 (calf topoisomerase I)?
**A.** 66.6 µM

**Q.** What about the aqueous solubility (Aqueous solubility) of the same compound?
**A.** limited aqueous solubility

**Q.** And the “increase in the amounts of linear DNA” value (human topoisomerase II [3])?
**A.** did not detect any significant increase (two-fold or less)

**Q.** What about the “effect on animal weight gain” value [4] of the same compound?
**A.** did not have any significant effect on animal weight gain

**Q.** And the tolerability [4]?
**A.** well-tolerated

**Q.** And the IC50 (human topoisomerase II [5]; [10])?
**A.** 165 ± 20.2 µM

**Q.** What about the IC50 (human topoisomerase II [5]; [11]) of the same compound?
**A.** 165 ± 20.2 µM

**Q.** What about the IC50 (human topoisomerase II [5]; [12]) of the same compound?
**A.** 165 µM

**Q.** And the IC50 (E. coli DNA gyrase)?
**A.** > 200 µM

**Q.** What about the “inhibition of colon cancer proliferation in vivo” value [6] of the same compound?
**A.** exhibited activity but was not as effective as 217
